Data: patent US7579356B2, “Thia-tetraazaacenaphthylene kinase inhibitors” (Janssen Pharmaceutica NV, priority 2005, dated 2009)

Columns and labels:
Assay type in all cases: biochemical
EGFR = molecular target: T1, EGFR (Homo sapiens, UniProt P00533); experiment: EGFR Kinase Assay; conditions: for inhibition at 2 µM: test concentration of 2 μM, compounds without an IC50, read-out: EGFR inhibition in percent; for IC50: GST-EGFR, ATP 5 μM
T1 construct: The intracellular portion of EGFR started at nucleotide 2189 (corresponding to amino acid 667) and ended at the termination codon; made in house; host or cells: Sf9 insect cells (baculovirus)
In short: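 GST-fused human EGFR intracellular domain (from aa 667), Sf9-expressed, phosphorylated biotinylated polyGluTyr with 5 μM ATP plus γ-33P ATP in Tris pH 8.0, MgCl2, vanadate, 1 mM DTT, 1 h at 30 °C. Streptavidin Flashplate scintillation read; triplicate 16-point half-log series from 200 uM; IC50 from % inhibition vs log concentration, else % inhibition at 2 μM.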

c-Src kinase (human) = molecular target: T2, c-Src kinase (human) (Homo sapiens, UniProt P12931); experiment: c-Src Kinase Assay; conditions: test concentration of 2 μM; multiple values are separate assay results
T2 construct: purchased Upstate Biotechnology, Lake Placid, N.Y
Protocol: A mixture of a 10× kinase buffer (80 mM MOPS at pH 7.0, 2 mM EDTA and 100 mM Magnesium Chloride), ATP (5 μM final from a 10 mM stock), a Cdc2 peptide KVEKIGEGTYGVVYK (100 μM final from a 2.5 mM stock), γ-^33P ATP (10 μCl/μL stock) and water (for a total of 20 μL/well) was added to each well of a Streptavidin Flashplate.
Test compound in 100% DMSO (0.5 μL) was added to the appropriate wells. Diluted c-Src kinase (human) (Accession Number SWISS-PROT P12931) (Upstate Biotechnology, Lake Placid, N.Y.) (diluted in a buffer consisting of 20 mM MOPS at pH 7.0, 1 mM EDTA, β-mercaptoethanol (0.1%), Brij-35 (0.01%), glycerol (5%), and 1 mg/mL bovine serum albumin) (2.5 μL) was added to the wells to initiate the reactions. The reaction plates were incubated at 30° C. for 40 min. The reaction was terminated by the addition of a 3% phosphoric acid solution (5 μL). The reaction product (10 μL) was spotted onto a P30 filtermat and washed for 5 minutes in phosphoric acid (75 mM). The wash sequence was repeated two more times, followed with one final wash in methanol. The plates were then dried, sealed and read on the TopCount scintillation counter after adding 30 μL scintillation fluid.
(§1) The c-Src inhibition values were derived using the percent inhibition formula provided in Example 164 and are shown as percent in Table 2 at a test concentration of 2 μM. For those compounds with an IC50, the IC50 value in μM is shown in parentheses. For compounds with multiple test values, each value represents a separate assay result.

Lyn kinase (human) = molecular target: T3, Lyn kinase (human) (Homo sapiens, UniProt P07948); experiment: Lyn Kinase Assay; conditions: test concentration of 2 μM
T3 construct: purchased Upstate Biotechnology, Lake Placid, N.Y
Protocol: A mixture of a 10× kinase buffer (500 mM MOPS at pH 7.5, 1 mM EGTA, 1 mM Sodium Vanadate, 1% β-mercaptoethanol and 100 mM Magnesium Acetate), ATP (5 μM final from a 10 mM stock), polyGluTyr (0.1 mg/mL final from a 1 mg/mL stock), γ-^33P ATP (10 μCl/μL stock) and water (for a total of 20 μL/well) was added to each well of a Streptavidin Flashplate.
Test compound in 100% DMSO (0.5 μL) was added to the appropriate wells. Diluted Lyn kinase (human)(Accession Number EMBL M16038) (Upstate Biotechnology, Lake Placid, N.Y.) (diluted in a buffer consisting of 50 mM Tris at pH 7.5, 0.1 mM EGTA, Sodium Vanadate (0.1 mM), β-mercaptoethanol (0.1%) and 1 mg/mL bovine serum albumin) (2.5 μL) was added to the wells to initiate the reactions.
The reaction plates were incubated at 30° C. for 40 min. The reaction was terminated by the addition of a 3% phosphoric acid solution (5 μL). The reaction product (10 μL) was spotted onto a P30 filtermat and washed for 5 minutes in phosphoric acid (75 mM). The wash sequence was repeated two more times, followed with one final wash in methanol. The plates were then dried, sealed and read on the TopCount scintillation counter after adding 30 μL scintillation fluid.
as §1, with “The Lyn” for “The c-Src”, “derived according to” for “derived using”, “the procedure described” for “the percent inhibition formula provided”, “Table 3” for “Table 2”

HER-2 = molecular target: T4, HER-2 (Homo sapiens, UniProt P04626); experiment: HER-2 Kinase Assay; conditions: for inhibition at 1 µM: test concentration of 1 μM; for IC50: value in parentheses
T4 construct: His6 with thrombin site (N); purchased Proqinase (Freiburg, Germany)
In short: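 GST/HIS6-tagged HER-2 aa 679–1255 kinase with biotinylated polyGluTyr (1.5 ng/μL), 1 μM ATP plus γ-33P-ATP, Mg2+/Mn2+, DTT, Hepes pH 7.5; 1 h at 30 °C. Substrate phosphorylation captured on streptavidin scintillation plates after EDTA/PBS washes; values are % inhibition at 1 μM or IC50.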

T4 sequence (P04626 679-1255): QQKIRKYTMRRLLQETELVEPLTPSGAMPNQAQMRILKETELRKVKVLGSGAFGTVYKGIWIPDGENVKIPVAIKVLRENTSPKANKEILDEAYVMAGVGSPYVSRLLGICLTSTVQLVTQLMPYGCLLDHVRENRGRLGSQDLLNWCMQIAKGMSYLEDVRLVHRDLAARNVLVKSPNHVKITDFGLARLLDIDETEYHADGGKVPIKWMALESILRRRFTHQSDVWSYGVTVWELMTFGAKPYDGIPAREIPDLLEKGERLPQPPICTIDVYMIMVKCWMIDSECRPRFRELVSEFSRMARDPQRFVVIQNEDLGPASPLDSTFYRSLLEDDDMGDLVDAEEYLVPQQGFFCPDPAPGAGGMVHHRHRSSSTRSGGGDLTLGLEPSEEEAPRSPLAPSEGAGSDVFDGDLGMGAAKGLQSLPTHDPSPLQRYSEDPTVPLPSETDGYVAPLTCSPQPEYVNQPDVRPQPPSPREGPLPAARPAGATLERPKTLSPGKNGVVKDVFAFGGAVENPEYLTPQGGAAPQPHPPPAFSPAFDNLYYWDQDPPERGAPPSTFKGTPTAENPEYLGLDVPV
T1 sequence (P00533 669-1210 limits assumed): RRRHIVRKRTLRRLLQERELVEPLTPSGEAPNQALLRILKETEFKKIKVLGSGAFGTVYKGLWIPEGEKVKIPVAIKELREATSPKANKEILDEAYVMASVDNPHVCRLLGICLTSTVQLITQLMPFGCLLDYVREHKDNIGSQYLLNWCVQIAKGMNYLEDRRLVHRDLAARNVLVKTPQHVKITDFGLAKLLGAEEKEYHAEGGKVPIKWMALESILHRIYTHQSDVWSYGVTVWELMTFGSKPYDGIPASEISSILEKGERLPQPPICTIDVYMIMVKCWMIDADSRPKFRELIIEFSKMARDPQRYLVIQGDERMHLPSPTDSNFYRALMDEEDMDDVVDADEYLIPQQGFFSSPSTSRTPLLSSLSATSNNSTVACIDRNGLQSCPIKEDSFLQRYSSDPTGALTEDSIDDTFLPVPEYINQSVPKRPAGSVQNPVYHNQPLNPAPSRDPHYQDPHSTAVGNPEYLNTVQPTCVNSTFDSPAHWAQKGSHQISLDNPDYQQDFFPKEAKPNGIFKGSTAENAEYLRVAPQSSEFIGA
T2 sequence (P12931 whole entry): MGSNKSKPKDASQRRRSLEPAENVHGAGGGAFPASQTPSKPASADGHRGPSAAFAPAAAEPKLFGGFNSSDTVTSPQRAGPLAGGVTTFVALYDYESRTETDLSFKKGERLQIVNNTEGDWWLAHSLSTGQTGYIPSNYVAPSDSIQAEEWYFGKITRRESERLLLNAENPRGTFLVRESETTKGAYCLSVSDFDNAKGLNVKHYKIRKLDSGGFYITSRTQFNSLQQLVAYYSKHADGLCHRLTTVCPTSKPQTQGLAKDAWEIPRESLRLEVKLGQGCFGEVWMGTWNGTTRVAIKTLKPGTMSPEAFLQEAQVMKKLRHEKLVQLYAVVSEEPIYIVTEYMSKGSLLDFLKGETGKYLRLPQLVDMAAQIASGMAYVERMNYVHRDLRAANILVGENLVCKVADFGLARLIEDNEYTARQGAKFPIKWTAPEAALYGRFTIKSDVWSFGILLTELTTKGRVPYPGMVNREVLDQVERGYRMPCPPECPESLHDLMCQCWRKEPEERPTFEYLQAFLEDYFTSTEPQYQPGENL
T3 sequence (P07948 whole entry): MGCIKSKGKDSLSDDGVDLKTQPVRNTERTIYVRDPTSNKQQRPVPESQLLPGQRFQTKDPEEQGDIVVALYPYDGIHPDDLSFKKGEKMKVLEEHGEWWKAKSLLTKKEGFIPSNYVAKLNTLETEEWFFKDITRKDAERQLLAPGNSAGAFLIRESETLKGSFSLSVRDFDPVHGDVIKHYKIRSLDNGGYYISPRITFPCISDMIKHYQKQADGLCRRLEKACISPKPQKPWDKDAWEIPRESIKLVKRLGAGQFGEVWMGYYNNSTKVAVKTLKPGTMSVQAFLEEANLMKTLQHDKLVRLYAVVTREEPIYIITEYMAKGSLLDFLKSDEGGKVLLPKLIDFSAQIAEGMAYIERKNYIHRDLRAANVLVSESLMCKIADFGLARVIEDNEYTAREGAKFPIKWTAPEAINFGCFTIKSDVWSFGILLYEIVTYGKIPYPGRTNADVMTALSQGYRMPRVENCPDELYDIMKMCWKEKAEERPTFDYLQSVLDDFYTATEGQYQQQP

inhibition at 2 µM (EGFR) [%] | inhibition at 2 µM (c-Src kinase (human)) [%] | inhibition at 2 µM (Lyn kinase (human)) [%] | inhibition at 1 µM (HER-2) [%] | IC50 (EGFR) [nM] | IC50 (HER-2) [nM] | SMILES
12 | -16 | 1 | -20 | – | – | O=C(Nc1ccc(CN2CCCCC2)cc1)c1sc2ncnc3c2c1NC(=O)N3c1cc(OCc2cccc(F)c2)c(Cl)cc1Cl [Cpd 57, 5-[2,4-dichloro-5-(3-fluoro-benzyloxy)-phenyl]-4-oxo-4,5-dihydro-3H-1-thia-3,5,6,8-tetraaza-acenaphthylene-2-carboxylic acid (4-piperidin-1-ylmethyl-phenyl)-amide]
16 | -48 | 6 | -27 | – | – | O=C(O)c1sc2ncnc3c2c1NC(=O)N3c1cc(OCc2cccc(F)c2)c(Cl)cc1Cl [Cpd 58, 5-[2,4-dichloro-5-(3-fluoro-benzyloxy)-phenyl]-4-oxo-4,5-dihydro-3H-1-thia-3,5,6,8-tetraaza-acenaphthylene-2-carboxylic acid]
20 | -13 | 8 | -18 | – | – | CN(Cc1ccc(NC(=O)c2sc3ncnc4c3c2NC(=O)N4c2cc(OCc3cccc(F)c3)c(Cl)cc2Cl)cc1)C[C@H]1CCCO1 [Cpd 59, 5-[2,4-dichloro-5-(3-fluoro-benzyloxy)-phenyl]-4-oxo-4,5-dihydro-3H-1-thia-3,5,6,8-tetraaza-acenaphthylene-2-carboxylic acid [4-({methyl-[(2R)-tetrahydro-furan-2-ylmethyl]-amino}-methyl)-phenyl]-amide]
9 | -2 | 30 | -11 | – | – | CN1CCN(Cc2ccc(NC(=O)c3sc4ncnc5c4c3NC(=O)N5c3cc(OCc4cccc(F)c4)c(Cl)cc3Cl)cc2)CC1 [Cpd 61, 5-[2,4-dichloro-5-(3-fluoro-benzyloxy)-phenyl]-4-oxo-4,5-dihydro-3H-1-thia-3,5,6,8-tetraaza-acenaphthylene-2-carboxylic acid [4-(4-methyl-piperazin-1-ylmethyl)-phenyl]-amide]
– | -9 | 17.8 | 58 | 120 | 643 | COc1ccc(N2C(=O)Nc3c(C(=O)Nc4ccc(CN5CCOCC5)cc4)sc4ncnc2c34)c(F)c1 [Cpd 65, 5-(2-fluoro-4-methoxy-phenyl)-4-oxo-4,5-dihydro-3H-1-thia-3,5,6,8-tetraaza-acenaphthylene-2-carboxylic acid (4-morpholin-4-ylmethyl-phenyl)-amide]
– | -17 | 22.5 | 51 | 103 | 965 | COc1ccc(N2C(=O)Nc3c(C(=O)Nc4ccc(OCCN5CCOCC5)c(OC)c4)sc4ncnc2c34)c(F)c1 [Cpd 67, 5-(2-fluoro-4-methoxy-phenyl)-4-oxo-4,5-dihydro-3H-1-thia-3,5,6,8-tetraaza-acenaphthylene-2-carboxylic acid [3-methoxy-4-(2-morpholin-4-yl-ethoxy)-phenyl]-amide]

Further lines, the compound ahead of its results:

SMILES | inhibition at 2 µM (EGFR) [%] | inhibition at 2 µM (c-Src kinase (human)) [%] | inhibition at 2 µM (Lyn kinase (human)) [%] | inhibition at 1 µM (HER-2) [%] | IC50 (EGFR) [nM] | IC50 (HER-2) [nM]
COc1cc(N2C(=O)Nc3c(C(=O)O)sc4ncnc2c34)cc(OC)c1OC [Cpd 42, 4-oxo-5-(3,4,5-trimethoxy-phenyl)-4,5-dihydro-3H-1-thia-3,5,6,8-tetraaza-acenaphthylene-2-carboxylic acid] | -3 | 8 | 24 | -36 | – | –
COc1cc(N2C(=O)Nc3c(C(=O)Nc4ccc(CN5CCOCC5)cc4)sc4ncnc2c34)c(Cl)cc1Cl [Cpd 44, 5-(2,4-dichloro-5-methoxy-phenyl)-4-oxo-4,5-dihydro-3H-1-thia-3,5,6,8-tetraaza-acenaphthylene-2-carboxylic acid (4-morpholin-1-ylmethyl-phenyl)-amide] | 26 | 45 | 49 | 21 | – | –
COc1cc(N2C(=O)Nc3c(C(=O)Nc4ccc(OCC5CCCCO5)c(OC)c4)sc4ncnc2c34)c(Cl)cc1Cl (stereo not shown) [Cpd 45, 5-(2,4-dichloro-5-methoxy-phenyl)-4-oxo-4,5-dihydro-3H-1-thia-3,5,6,8-tetraaza-acenaphthylene-2-carboxylic acid [3-methoxy-4-(tetrahydro-pyran-2-ylmethoxy)-phenyl)-amide] | 14 | 17 | 29 | -25 | – | –
COc1cc(N2C(=O)Nc3c(C(=O)N4CCCC4)sc4ncnc2c34)c(Cl)cc1Cl [Cpd 46, 5-(2,4-dichloro-5-methoxy-phenyl)-2-(pyrrolidine-1-carbonyl)3H,5H-1-thia-3,5,6,8-tetraaza-acenaphthylen-4-one] | 1 | 30 | 40 | 0 | – | –
COc1ccc(Cl)c(N2C(=O)Nc3c(C(=O)O)sc4ncnc2c34)c1 [Cpd 47, 5-(2-chloro-5-methoxy-phenyl)-4-oxo-4,5-dihydro-3H-1-thia-3,5,6,8-tetraaza-acenaphthylene-2-carboxylic acid] | 5 | 9 | 28 | -28 | – | –
O=C(Nc1ccc(CN2CCOCC2)cc1)c1sc2ncnc3c2c1NC(=O)N3c1ccc(Br)cc1F [Cpd 53, 5-(4-bromo-2-fluoro-phenyl)-4-oxo-4,5-dihydro-3H-1-thia-3,5,6,8-tetraaza-acenaphthylene-2-carboxylic acid (4-morpholin-4-ylmethyl-phenyl)-amide] | 34 | 11 | 17 | -13 | – | –
O=C(Nc1ccc(CN2CCCC2)cc1)c1sc2ncnc3c2c1NC(=O)N3c1cc(OCc2cccc(F)c2)c(Cl)cc1Cl [Cpd 55, 5-[2,4-dichloro-5-(3-fluoro-benzyloxy)-phenyl]-4-oxo-4,5-dihydro-3H-1-thia-3,5,6,8-tetraaza-acenaphthylene-2-carboxylic acid (4-pyrrolidin-1-ylmethyl-phenyl)-amide] | 14 | -16 | 3 | -22 | – | –
COc1cc(NC(=O)c2sc3ncnc4c3c2NC(=O)N4c2cc(OCc3cccc(F)c3)c(Cl)cc2Cl)ccc1OCCN1CCCCC1 [Cpd 56, 5-[2,4-dichloro-5-(3-fluoro-benzyloxy)-phenyl]-4-oxo-4,5-dihydro-3H-1-thia-3,5,6,8-tetraaza-acenaphthylene-2-carboxylic acid [3-methoxy-4-(2-piperidin-1-yl-ethoxy)-phenyl]-amide] | 20 | -22 | 7 | -6 | – | –
